US20100076194A1, “SUBSTITUTED 3-AMINO-1-OXO OR THIOXO-1,2,5,6,7,8-HEXAHYDRO-2,7-NAPHTHYRIDINE-4-CARBONITRILES ARE SELECTIVE ALPHA 2B ANTAGONISTS” (ALLERGAN, INC., priority 2008, published 2010)
Where two headings read alike, the source gives them in different places.

How the values were obtained:
[1] = biological target: T1, mouse alpha2B receptor (Mus musculus, UniProt P30545); assay: FLIPR Ca+2 influx antagonist assay, alpha 2B; assay type: cell-based; conditions: for % Antagonism Alpha 2B: value in parentheses
T1 construct: expressed in transfected cells; host or cells: HEK 293
T1 sequence (P30545 1-453): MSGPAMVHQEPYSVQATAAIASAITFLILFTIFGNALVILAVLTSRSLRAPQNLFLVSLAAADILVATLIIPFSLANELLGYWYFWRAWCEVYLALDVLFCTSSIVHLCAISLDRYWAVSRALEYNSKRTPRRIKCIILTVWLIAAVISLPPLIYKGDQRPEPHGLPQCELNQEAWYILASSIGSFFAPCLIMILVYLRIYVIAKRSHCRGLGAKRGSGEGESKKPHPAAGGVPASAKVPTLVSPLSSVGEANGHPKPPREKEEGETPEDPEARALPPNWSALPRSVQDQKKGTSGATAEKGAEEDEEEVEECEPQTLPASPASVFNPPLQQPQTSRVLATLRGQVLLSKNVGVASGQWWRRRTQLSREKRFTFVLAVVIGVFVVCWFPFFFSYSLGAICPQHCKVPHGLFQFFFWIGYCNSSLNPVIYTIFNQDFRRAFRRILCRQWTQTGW
Procedure: (§1) HEK 293 cells stably expressing the human alpha 2A receptor and the chimeric G protein Gqi5, the mouse alpha2B receptor and the G protein G16, and the human alpha 2C receptor and the chimeric G protein Gqi5 are plated in poly-D-lysine coated 96-well plates at 50,000-75,000 cells per well and grown overnight in DMEM supplemented with 10% fetal bovine serum. For FLIPR (fluorometric image plate reader) evaluation, cells are washed twice with HBSS/HEPES Buffer (1× Hanks Buffered Salt Solution, 20 mM HEPES, pH 7.4) prior to the addition of Fluo-4-AM (4 uM Fluo-4-AM, 0.04% pluronic acid in HBSS/HEPES Buffer), a calcium-sensitive dye. Cells are loaded with dye for 60 minutes at 37° C., then washed 4 times with HBSS/HEPES Buffer. For both the agonist and antagonist assay, the test compounds are tested between 0.64 nM-10,000 nM.
(§2) However, the antagonist blocks the transient calcium signal of the standard agonist norepinephrine in a dose-dependent manner. The residual norepinephrine peak height is compared to the non-antagonized norepinephrine peak height for the determination of % antagonism.

[2] = biological target: T2, Alpha 1A adrenergic receptor (Homo sapiens, UniProt P35348); assay: FLIPR Ca+2 influx antagonist assay, alpha 1A; assay type: cell-based; conditions: for % Antagonism Alpha 1A: value in parentheses, vs norepinephrine peak height
T2 sequence (P35348 1-466): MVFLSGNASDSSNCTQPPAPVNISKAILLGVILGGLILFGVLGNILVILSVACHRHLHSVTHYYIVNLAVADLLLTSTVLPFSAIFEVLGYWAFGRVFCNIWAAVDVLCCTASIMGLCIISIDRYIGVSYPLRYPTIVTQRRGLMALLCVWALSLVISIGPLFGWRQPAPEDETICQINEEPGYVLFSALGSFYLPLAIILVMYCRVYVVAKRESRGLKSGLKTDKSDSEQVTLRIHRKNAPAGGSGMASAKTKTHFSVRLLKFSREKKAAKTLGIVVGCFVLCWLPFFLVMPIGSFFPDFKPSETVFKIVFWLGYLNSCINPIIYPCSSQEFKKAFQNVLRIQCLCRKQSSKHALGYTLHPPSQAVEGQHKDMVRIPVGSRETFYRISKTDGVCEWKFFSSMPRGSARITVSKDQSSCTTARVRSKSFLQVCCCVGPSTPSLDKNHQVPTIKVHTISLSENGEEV

[3] = biological target: T3, Alpha 1B adrenergic receptor (Homo sapiens, UniProt P35368); assay: FLIPR Ca+2 influx antagonist assay, alpha 1B; assay type: cell-based; conditions: for % Antagonism Alpha 1B: value in parentheses, vs norepinephrine peak height
T3 sequence (P35368 1-520): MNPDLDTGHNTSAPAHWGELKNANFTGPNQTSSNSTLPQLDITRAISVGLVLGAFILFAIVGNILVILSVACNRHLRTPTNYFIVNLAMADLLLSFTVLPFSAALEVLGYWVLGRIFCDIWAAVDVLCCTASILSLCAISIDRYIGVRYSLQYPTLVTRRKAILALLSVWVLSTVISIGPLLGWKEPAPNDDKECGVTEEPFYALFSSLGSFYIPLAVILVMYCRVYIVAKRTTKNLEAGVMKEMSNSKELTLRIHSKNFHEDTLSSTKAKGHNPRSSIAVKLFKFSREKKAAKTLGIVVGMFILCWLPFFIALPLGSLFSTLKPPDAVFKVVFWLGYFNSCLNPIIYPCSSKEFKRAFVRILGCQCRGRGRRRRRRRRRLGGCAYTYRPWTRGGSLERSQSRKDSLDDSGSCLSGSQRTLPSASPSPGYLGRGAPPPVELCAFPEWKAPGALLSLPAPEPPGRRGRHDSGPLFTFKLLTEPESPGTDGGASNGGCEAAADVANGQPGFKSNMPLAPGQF

[4] = biological target: T4, human alpha 2A receptor (Homo sapiens, UniProt P08913); assay: FLIPR Ca+2 influx antagonist assay, alpha 2A; assay type: cell-based; conditions: HEK 293 cells, Gqi5; for IC50: antagonism of norepinephrine calcium signal; for % Antagonism Alpha 2A: value in parentheses
T4 construct: expressed in transfected cells; host or cells: HEK 293
T4 sequence (P08913 1-465): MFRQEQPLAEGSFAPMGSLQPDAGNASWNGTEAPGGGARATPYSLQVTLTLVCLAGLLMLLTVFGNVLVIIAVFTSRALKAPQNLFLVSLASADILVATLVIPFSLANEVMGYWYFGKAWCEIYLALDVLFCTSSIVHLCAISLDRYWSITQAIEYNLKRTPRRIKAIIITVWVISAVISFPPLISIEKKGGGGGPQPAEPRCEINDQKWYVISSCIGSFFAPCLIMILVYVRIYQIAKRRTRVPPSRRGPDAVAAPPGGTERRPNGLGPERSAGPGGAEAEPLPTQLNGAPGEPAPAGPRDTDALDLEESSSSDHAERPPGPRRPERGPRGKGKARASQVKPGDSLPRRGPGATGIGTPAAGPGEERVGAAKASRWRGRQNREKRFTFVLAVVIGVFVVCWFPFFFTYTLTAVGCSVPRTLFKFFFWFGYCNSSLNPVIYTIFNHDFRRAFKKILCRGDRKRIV
Procedure: as §1, §2

[5] = biological target: T5, human alpha 2C receptor (Homo sapiens, UniProt P18825); assay: FLIPR Ca+2 influx antagonist assay, alpha 2C; assay type: cell-based; conditions: HEK 293 cells, Gqi5; for % Antagonism Alpha 2C: value in parentheses
T5 construct: expressed in transfected cells; host or cells: HEK 293
T5 sequence (P18825 1-462): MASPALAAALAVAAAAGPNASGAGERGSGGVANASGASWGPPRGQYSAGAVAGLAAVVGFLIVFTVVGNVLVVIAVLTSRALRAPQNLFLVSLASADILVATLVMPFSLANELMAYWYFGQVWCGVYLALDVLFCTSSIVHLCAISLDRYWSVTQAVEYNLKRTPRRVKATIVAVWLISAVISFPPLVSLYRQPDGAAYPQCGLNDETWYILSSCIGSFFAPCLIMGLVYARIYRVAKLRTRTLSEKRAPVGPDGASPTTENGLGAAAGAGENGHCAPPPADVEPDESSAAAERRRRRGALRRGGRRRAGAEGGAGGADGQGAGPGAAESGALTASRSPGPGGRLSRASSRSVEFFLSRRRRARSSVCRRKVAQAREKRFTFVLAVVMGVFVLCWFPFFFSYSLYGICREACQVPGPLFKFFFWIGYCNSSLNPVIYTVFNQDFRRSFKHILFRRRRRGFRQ
Procedure: as §1, §2

[6] = test system: mechanical allodynia; assay: Chung rat nerve ligation model of neuropathic pain (mechanical allodynia); assay type: in vivo; conditions: co-administered IP at 100 ug/kg each, 30 minutes post drug, FIG. 1A
Procedure: The Chung model is a surgical model of neuropathic pain in rats. The pain state is generated by tight ligation of the L5 and L6 spinal nerves on one side of the rat. The surgical procedure results in a long-lasting mechanical allodynia in the affected foot. Mechanical allodynia is measured using von Frey filaments, where the investigator stimulates the plantar surface of the affected foot. Different sized filaments generate a different force. A painful response is signified by withdrawal of the paw.
Mechanical allodynia is measured at 30 minutes post drug and is reported as the percentage response to the baseline reading taken pre-drug administration.
The lack of allodynial reversal in these rats is also a measure of antagonist ability to block a response.

[7] = HEK 293 cells, G16, antagonism of norepinephrine calcium signal, read-out: IC50 Alpha 2B

Row | Structure (SMILES) | IC50 [1, 7] | % Antagonism Alpha 2B ([1]; HEK 293 cells, G16) | IC50 [2] | % Antagonism Alpha 1A [2] | IC50 [3] | % Antagonism Alpha 1B [3] | IC50 [4] | % Antagonism Alpha 2A [4] | IC50 [1] | % Antagonism Alpha 2C [5] | block of allodynia reversal by 4-Cyclopent-3-enylmethyl-1,3-dihydro-imidazole-2-thione [6] | IC50 ([2]; antagonism of norepinephrine calcium signal, read-out: IC50 Alpha 1A) | IC50 ([3]; antagonism of norepinephrine calcium signal, read-out: IC50 Alpha 1B) | IC50 ([5]; antagonism of norepinephrine calcium signal)
1 | CN1CCc2c(C#N)c(N)n(C)c(=O)c2C1 [Example 9, 3-Amino-2-methyl-4-cyano-7-methyl-(1,2,5,6,7,8-hexahydro-2,7-napthyridine-1-ketone)] | 1170 nM | 88% |  |  |  |  |  |  |  |  |  |  |  | 
2 | CN1Cc2c(c(C#N)c(N)n(N)c2=S)CC1(C)C [Example 7, 2,3-diamino-4-cyano-6,6,7-trimethyl-(1,2,5,6,7,8-hexahydro-2,7-napthyridine-1-thione)] |  | 97% | 382 nM | 98% | > 7500 nM | 16% | > 7500 nM | 0% | 29 nM | nd (17) % |  |  |  | 
3 | CN1CCc2c(C#N)c(N)n(C)c(=S)c2C1 [Example 5, 3-amino-2,7-dimethyl-1-thioxo-1,2,5,6,7,8-hexahydro-2,7-naphthyridine-4-carbonitrile] |  | 95% |  | nd (64) % | > 8300 nM | 0% | 1990 nM | 69% | 10 nM | nd (25) % | completely blocks |  |  | 
4 | CN1CCc2c(C#N)c(N)n(N)c(=S)c2C1 [Example 6, 2,3-diamino-4-cyano-7-methyl-(1,2,5,6,7,8-hexahydro-2,7-napthyridine-1-thione)] | 204 nM | 112% |  | 19% |  | 19% |  | nd (36) % |  | 29% |  | > 7500 nM | > 7500 nM | 1410 nM
5 | Cn1c(N)c(C#N)c2c(c1=S)CNCC2 [Example 4, 3-amino-2-methyl-1-thioxo-1,2,5,6,7,8-hexahydro-2,7-naphthyridine-4-carbonitrile] | 342 nM | 93% |  |  |  |  |  |  |  |  |  |  |  | 
6 | CCn1c(N)c(C#N)c2c(c1=S)CN(C)CC2 [Example 8, 3-Amino-2-ethyl-4-cyano-7-methyl-(1,2,5,6,7,8-hexahydro-2,7-napthyridine-1-thione)] | 473 nM | 95% |  |  |  |  |  |  |  |  |  |  |  | 
